Where two headings read alike, the source gives them in different places.
Experiments:
Format in all cases: cell-based
[1] = test system: SW620 cells; experiment: In vitro cytotoxicity assay, CellTiter-Glo, 96 hours after treatment, target non-expressing cells; conditions: read-out: SW620 Antibody IC50
Protocol: (§1) In vitro cytotoxicity assays were carried out using various antibodies, payloads (i.e., agent moieties), and amine donor units. For mAb2 (a chimeric IgG1 antibody), target expressing (A431, OVCAR3, BxPC3 and HT-29) or non-expressing (SW620) cells were seeded on white walled clear bottom plates at 2000 cells/well for 24 hours before treatment. […] Cell viability was determined by CellTiter-Glo® Luminescent Cell Viability Assay 96 (Promega, Madison Wis.) 96 hours after treatment. […] IC50 was calculated by Prism software.

[2] = test system: BxPC3 cells; experiment: In vitro cytotoxicity assay, CellTiter-Glo, 96 hours after treatment (mAb2 conjugates and free compounds); conditions: BxPC3, target expressing, column also holds free compounds, read-out: BxPC3 Antibody IC50
Protocol: as §1

[3] = test system: A431 cells; experiment: as above; conditions: Homo sapiens, A-431, 96 h, read-out: A431 Antibody IC50 (nM)
Protocol: as §1

[4] = test system: HT-29 cells; experiment: as above; conditions: Homo sapiens, HT-29, target expressing, column also holds free compounds, read-out: HT-29 Antibody IC50
Protocol: as §1

Compound	IC50 ([1]; values only for free compounds)	IC50 [2]	IC50 ([1]; Homo sapiens, SW-620, values only for free compounds)	IC50 [3]	IC50 [4]
VC-PABC-MMAF [Sample 24]	483 nM	427 nM	–	–	–
CO[C@H]1/C=C\C=C(/C)C(=O)NC2=CC(=O)C(NCCCCNC(=O)[C@H](CCCCN)NC(C)=O)=C(C[C@@H](C)C[C@H](OC)[C@H](O)[C@@H](C)/C=C(\C)[C@@H]1OC(N)=O)C2=O [Sample 26, AcLys-Putrescinyl-Geldanamycin]	–	–	> 1000 nM	> 1000 nM	–
CC[C@H](C)[C@@H](C(CC(=O)N1CCCC1C(OC)[C@@H](C)C(=O)NC(Cc1ccccc1)c1nccs1)OC)N(C)C(=O)C(NC(=O)[C@H](C(C)C)N(C)C(=O)CNC(=O)C(C)CCCCN)C(C)C (stereo partly drawn) [Sample 29, AcLysGly-MMAD]	–	–	–	8.42 nM	5.14 nM
